Measured values: publication PMC10056636, “3-Amino-Substituted Analogues of Fusidic Acid as Membrane-Active Antibacterial Compounds” (Membranes, 2023)
Values after ≈ are worked out from the molar mass of the structure shown. Values joined by “and” are separate entries in the source; they are usually repeats but may differ in a detail not shown here. Equal values may be shown once. Read-outs that look alike come from different tables or passages of the source.

How the values were obtained:
[1] = Calcein release from liposomes; settings: for τ (characteristic time of marker release): 5 μg/mL; for IFmax (maximum release of fluorescent marker from lipid vesicles): 5 μg/mL of test compound
Protocol: Calcein release from liposomes. Small unilamellar vesicles (Ø100 nm) composed of 1,2-dioleoyl-sn-glycero-3-phosphocholine (DOPC) or 1,2-dioleoyl-sn-glycero-3-phospho-(1′-rac-glycerol) (DOPG) and loaded with the fluorescent dye calcein (35 mM) were obtained using a mini-extruder (Avanti Polar Lipids, Alabaster, AL, USA). At this concentration, calcein fluorescence inside the liposomes is self-quenched. The calcein that was not entrapped in the vesicles was removed by gel filtration with calcein-free solution (150 mM KCl, 10 mM HEPES, pH 7.4). An increase in the free calcein fluorescence in a surrounding medium is a measure of the disturbance of membrane integrity, in the absence and presence of test compounds (4, 20, 22). The control samples were not modified. Experimental samples were treated by 5 µg/mL of the compounds (4, 20, 22). Fluorescence of released calcein was determined on a Fluorat-02-Panorama spectrofluorimeter (Lumex, Saint-Petersburg, Russia) (excitation wavelength of 490 nm, emission wavelength of 520 nm). The detergent Triton X-100 (at a final concentration of 1%) was added at the end of experiments for complete disruption of liposomes (complete release of calcein from the vesicles).
The relative intensity of calcein fluorescence (IF, %) was calculated as:(2) IF=I−I0/Imax/0.9−I0⋅100% where I and I0 are the calcein fluorescence intensities in the presence and absence of test compounds, respectively, and Imax is the maximal fluorescence after treatment of liposomes with Triton X-100 (a factor of 0.9 was introduced to account for sample dilution by Triton X-100).

[2] = tested on: human red blood cells; assay: Hemolysis assay; assay type: cell-based; settings: human, 1 h
Protocol: (§1) Human whole blood was washed three times with 3 volumes of 0.9% NaCl and then resuspended in the same medium to a concentration of 0.5 × 10^8 cells/mL, as determined by manual cell count in a Neubauer hemocytometer. The washed cells were then added to 384-well plates containing the test compounds to a final volume of 50 µL. After shaking on a plate shaker for 10 min, the plates were incubated for 1 h at 37 °C. After incubation, the plates were centrifuged at 1000× g for 10 min to pellet the cells and debris; 25 µL of the supernatant was then transferred to a polystyrene 384-well assay plate.
(§2) Hemolysis was monitored by measuring the supernatant absorbance at […] (OD405). The absorbance was measured using a Tecan M1000 Pro monochromator plate reader. HC10 and HC50 (10% and 50% hemolysis concentrations, respectively) were calculated by curve fitting of inhibition vs. log(concentration) using a sigmoidal dose–response function with variable fitting values for top, bottom, and slope. In addition, the maximal percentage of hemolysis is reported as DMax, indicating any compounds with partial hemolysis. The curve fitting was implemented using Pipeline Pilot’s dose–response component. […] Any value with > indicated sample with no activity (low DMax value) or samples with HC10 values above the maximum tested concentration (higher DMax value).
(§3) In addition, samples were flagged as partially hemolytic if DMax ≥ 50%, even for HC10 > the maximum tested concentration. […]

[3] = Hemolysis assay; assay type: cell-based, human; settings: human, Dmax (maximal percentage of hemolysis)
Protocol: as §1, §2, §3

[4] = Ion permeability, pore formation and rupture of planar lipid bilayers; settings: for formation of ion-permeable pores: DPhPG bilayers; for Cbr (threshold concentration required to rupture the bilayer): 0.1 M KCl, pH 7.4, 100 mV
Protocol: Synthetic 1,2-diphytanoyl-sn-glycero-3-phosphocholine (DPhPC) and 1,2-diphytanoyl-sn-glycero-3-phospho-(1′-rac-glycerol) (DPhPG) were purchased from Avanti® Polar Lipids (Avanti Polar Lipids, Inc., Alabaster, AL, USA). A KCl solution (0.1 M) was buffered with 5 mM HEPES, pH 7.4. Bilayer lipid membranes were prepared from DPhPC or DPhPG using a monolayer-opposition technique on a 50 µm-diameter aperture in a 10 µm-thick Teflon film separating the cis- and trans-compartments of the Teflon chamber. Experiments were performed in chambers containing 0.1 M KCl, 5 mM Hepes-KOH, pH 7.4.
The test compounds (4, 20, 22) were added to the cis-chamber as 10 mg/mL solutions in ethanol (to mimic the physiologically relevant conditions) up to the final concentrations and the effects of the compounds on the ion permeability of the model lipid membranes were studied. Ag/AgCl electrodes with 1.5% agarose/2 M KCl bridges were used to apply the transmembrane voltage (V) and measure the transmembrane current (I). ‘Positive voltage’ refers to the case in which the cis-side compartment is positive with respect to the trans-side. All experiments were performed at room temperature.
The current was measured using an Axopatch 200B amplifier (Molecular Devices, LLC, Orlean, CA, USA) in voltage clamp mode. Data were digitized using a Digidata 1440A and analyzed using pClamp 10.0 (Molecular Devices, LLC, Orlean, CA, USA) and Origin 8.0 (OriginLab Corporation, Northampton, MA, USA). The data were acquired at a sampling frequency of 5 kHz using low-pass filtering at 200 Hz.
The threshold concentrations (Cbr) of the derivatives required to rupture the bilayers composed of DPhPC or DPhPG at a transmembrane voltage of 100 mV were determined. Cbr-values were averaged from 3 to 4 bilayers and presented as mean ± standard error (p ≤ 0.05).
Pore-forming ability of compound 22 was studied by applying transmembrane voltages in a range of 50–200 mV with 50 mV step and by increasing the derivative concentration in the bilayer bathing solution from 10 to 150 µg/mL.

[5] = tested on: Escherichia coli (ATCC 25922); assay: Antibacterial whole-cell growth inhibition (MIC, CO-ADD); assay type: cell-based; settings: E. coli, two replicates per cell
Protocol: (§4) Antibacterial screening was carried out by the serial dilution method. All bacteria were cultured in the cation-adjusted Mueller Hinton broth (CAMHB) at 37 °C overnight. A sample of each culture was then diluted 40-fold in fresh broth and incubated at 37 °C for 1.5–3 h. The resultant mid-log phase cultures were diluted (CFU/mL measured by OD600) and then added into each well containing a test compound, giving a cell density of 5 × 10^5 CFU/mL and a total volume of 50 µL. All the plates were covered and incubated at 37 °C for 18 h without shaking.
(§5) Inhibition of bacterial growth was determined by measuring the absorbance at 600 nm (OD600) with a Tecan M1000 Pro monochromator plate reader. […]

[6] = tested on: Pseudomonas aeruginosa (ATCC 27853); assay: as above; assay type: cell-based; settings: P. aeruginosa, two replicates per cell
Protocol: as §4, §5

[7] = tested on: Staphylococcus aureus (ATCC 43300) (MRSA); assay: as above; assay type: cell-based; settings: S. aureus (MRSA) ATCC 43300, inhibition ≥80%, two replicates (n = 2)
Protocol: as §4, §5

[8] = tested on: Acinetobacter baumannii (ATCC 19606); assay: as above; assay type: cell-based; settings: A. baumannii, two replicates per cell
Protocol: as §4, §5

[9] = Escherichia coli, ATCC25922, read-out: MIC
[10] = Pseudomonas aeruginosa, ATCC27853, read-out: MIC
[11] = Acinetobacter baumannii, ATCC19606, read-out: MIC

SMILES: COC(=O)/C(CCC=C(C)C)=C1\[C@@H](OC(C)=O)C[C@@]2(C)[C@@H]1C[C@@H](O)[C@@H]1[C@@]3(C)CC[C@H](NCCCNCCCCN)[C@@H](C)C3CC[C@@]12C (stereo partly drawn) [Compound 20, Methyl (2Z)-2-[(3β,4α,8α,11α,14β,16β)-16-(acetyloxy)-3-({3-[(4aminobutyl)amino]propyl}amino)-11-hydroxy-4,8,10,14-tetramethylgonan-17-ylidene]-6-methylhept-5-enoate]
- τ (characteristic time of marker release) ([1]; DOPC): 0.5 ± 0.2 min
- IFmax (maximum release of fluorescent marker from lipid vesicles) ([1]; DOPC): 88 ± 3%
- τ (characteristic time of marker release) ([1]; DOPG): 1.0 ± 0.1 min
- IFmax (maximum release of fluorescent marker from lipid vesicles) ([1]; DOPG): 87 ± 4%
- Dmax (maximal percentage of hemolysis) [2]: 60.5%
- hemolysis at 1 h [3]: 61.8%
- concentration up to which ionic permeability of lipid bilayers is not affected ([4]; DPhPG): ≤ 200 µg/mL
- formation of ion-permeable pores [4]: not able to form transient ion-permeable pores
- Cbr (threshold concentration required to rupture the bilayer) ([4]; DPhPG): 190 ± 13 µg/mL
- MIC [5]: 32 mg/L (≈ 48.6 µM)
- MIC [5, 9]: 32 mg/L (≈ 48.6 µM)
- MIC [6]: >32 >32 µg/mL
- MIC [6, 10]: > 32 mg/L
- MIC [7]: 4.0 mg/L and 8.0 mg/L
- MIC [8]: 32 mg/L (≈ 48.6 µM)
- MIC [8, 11]: 32 mg/L (≈ 48.6 µM)

SMILES: COC(=O)/C(CCC=C(C)C)=C1\[C@@H](OC(C)=O)C[C@@]2(C)[C@@H]1C[C@@H](O)[C@@H]1[C@@]3(C)CC[C@H](NCCCNCCCCNCCCN)[C@@H](C)C3CC[C@@]12C (stereo partly drawn) [Compound 22, Methyl (2Z)-2-[(3β,4α,8α,11α,14β,16β)-16-(acetyloxy)-3-{[3-({4-[(3-aminopropyl)amino]butyl}amino)propyl]amino}-11-hydroxy-4,8,10,14-tetramethylgonan-17-ylidene]-6-methylhept-5-enoate]
- τ (characteristic time of marker release) ([1]; DOPC): 0.7 ± 0.2 min
- IFmax (maximum release of fluorescent marker from lipid vesicles) ([1]; DOPC): 95 ± 2%
- τ (characteristic time of marker release) ([1]; DOPG): 9.8 ± 0.4 min
- IFmax (maximum release of fluorescent marker from lipid vesicles) ([1]; DOPG): 83 ± 3%
- Dmax (maximal percentage of hemolysis) [2]: 11.3%
- HC50 [2]: >32 >32 µg/mL
- hemolysis at 1 h [3]: 15.1%
- concentration from which (up to Cbr) stepwise current fluctuations are produced ([4]; DPhPG): 35 to 40 µg/mL
- formation of ion-permeable pores [4]: able to produce stepwise current fluctuations
- Cbr (threshold concentration required to rupture the bilayer) ([4]; DPhPG): 135 ± 10 µg/mL
- amplitude of the stepwise current fluctuations ([4]; DPhPG, pores induced by the compound): 20–160 pS
- MIC [5]: 32 mg/L (≈ 44.8 µM)
- MIC [5, 9]: 32 mg/L (≈ 44.8 µM)
- MIC [6]: 32 mg/L (≈ 44.8 µM)
- MIC [6, 10]: 32 mg/L (≈ 44.8 µM)
- MIC ([7]; Staphylococcus aureus, read-out: MIC): 2 mg/L (≈ 2.8 µM)
- MIC [8]: 32 mg/L (≈ 44.8 µM)
- MIC [8, 11]: 32 mg/L (≈ 44.8 µM)
